In patent publication US20240307362A1 (priority 2019, published 2024) one finds IC50 data, which are given here for four molecules.

Experiment [1] relates to Ba/F3-EGFR-E746_A750del C797S. As to the kind of experiment: Ba/F3 cell survival assay, EGFR E746_A750del C797S. In kind it is cell-based. As to conditions: 48 h, read-out: BA/F3 (EGFR E746_A750del C797S) IC50. As for the experimental part: (§1) 293T cells from ATCC were transfected with pBABEpuro expression constructs for mutant EGFR (V769_D770insASV, D770_N771insNPG, N771_P772insH, H773_V774insNPH, E746_A750del, L858R, D770_N771 insSVD C797S, E746_A750del C797S, L858R C797S, L861Q) or mutant ERBB2 (A775_G776insYVMA) and pCL-Eco packaging vector using Fugene-6 transfection reagent from Promega. Plates were incubated at 37° C. for 48 h. Retrovirus was harvested by filtering the media supernatant through a 0.45 μm filter.
(§2) Ba/F3 cells purchased from DSMZ were grown in RPMI+10% FBS+10 ng/mL IL-3 and infected with filtered retroviral supernatant at a 1:2 dilution. Polybrene was added to a concentration of 8 μg/mL, plates were spun for 90 min, and incubated overnight at 37° C. 2 μg/mL puromycin was added to the infected cells 24 h after infection and cells were continually grown in the presence of puromycin and 10 ng/mL IL-3. Following stably expressing Ba/F3 cell lines were generated: Ba/F3-EGFR-V769_D770insASV, Ba/F3-EGFR-D770_N771insNPG, Ba/F3-EGFR-N771_P772insH, Ba/F3-EG, Ba/F3-EGFR-H773_V774insNPH, Ba/F3-EGFR-E746_A750del, Ba/F3-EGFR-L858R, Ba/F3-EGFR-D770_N771 insSVD C797S, Ba/F3-EGFR-E746_A750del C797S, Ba/F3-EGFR-L858R C797S, Ba/F3-EGFR L861Q and Ba/F3-ERBB2-A775_G776insYVMA (Ba/F3—vector-control).
(§3) For cell survival assays, Ba/F3 cells were grown to a density of 1-2 million cells per mL, spun down and resuspended in media without IL-3, and replated at a concentration 200,000-500,000 cells per mL. The cells ectopically expressing WT EGFR plated with 10 ng/mL Millipore Culture grade EGF and Ba/F3 cells containing mutant EGFR or Mutant ERBB2 were cultivated without EGF. The cells ectopically expressing pBABEpuro empty vector were plated with 10 ng/mL IL-3.
(§4) 2 days later, cells were plated in 50 μL in a 384 well plate at a concentration of 4000 cells per well for cells assayed in the absence of IL-3 and 2000 cells per well for cells assayed in the presence of IL-3. 100 nL of compound was added to each well using a 100 nL pin head, and plates were incubated at 37° C. for 48 h.
(§5) Cell viability was measured by adding 20 μL of Cell Titer-Glo Luminescent Cell Viability Reagent diluted 1:3 in PBS. Plates were sealed with Perkin Elmer Top-Seal, inverted several times to mix, and immediately centrifuged at 1000 rpm for 2 min. Plates were incubated in low light conditions for 8-10 min and luminescence was measured.

The test system of the next experiment is Ba/F3-EGFR-E746_A750del. Kind of experiment: Ba/F3 cell survival assay, EGFR E746_A750del. To be noted: 48 h, read-out: BA/F3 (EGFR E746_A750del) IC50. In kind it is cell-based. The procedure: as §1, §2, §3, §4, §5
Experiment [2] relates to Ba/F3-EGFR-V769_D770insASV. Kind of experiment: Ba/F3 cell survival assay, EGFR V769_D770insASV. In kind it is cell-based. To be noted: 48 h, read-out: BA/F3 (ASV) IC50. As for the experimental part: as §1, §2, §3, §4, §5
For another experiment, the system named is Ba/F3-EGFR-N771_P772insH. As to the kind of experiment: Ba/F3 cell survival assay, EGFR N771_P772insH. In kind it is cell-based. As to conditions: 48 h, read-out: BA/F3 (EGFR N771— P772insH) IC50. As for the experimental part:
as §1, §2, §3, §4, §5

Another experiment has as its target human Bub1 (Homo sapiens (Human), UniProt O43683). As to the kind of experiment: Bub1 high ATP kinase assay (TR-FRET). In kind it is biochemical. As to conditions: read-out: Bub1 high ATP (2 mM) IC50; 2 mM ATP. An excerpt:
Bub1-inhibitory activity of compounds of the present invention at a high ATP concentration was quantified employing the Bub1 TR-FRET high ATP kinase assay as described in the following paragraphs.
N-terminally His6-tagged recombinant catalytic domain of human Bub1 (amino acids 704-1085), expressed in insect cells (Hi5) and purified by Ni-NTA affinity chromatography and subsequent size exclusion chromatography, was used as enzyme.
On the technique in general: Time-resolved FRET reads energy transfer from a long-lived donor to a nearby acceptor.

The next experiment has as its system Ba/F3-EGFR-WT. As to the kind of experiment: Ba/F3 cell survival assay, WT EGFR. In kind it is cell-based.
A further experiment deals with PC9 cells. As to the kind of experiment: PC9 cell proliferation assay (EGFRex19del). In kind it is cell-based. As to conditions: Homo sapiens, PC-9, 72 h, read-out: PC9 IC50. The procedure: PC9 cells were purchased from ATCC. 400 PC9 cells per well were seeded in growth medium (DMEM, 10% FCS) in a 384-well plate (CORNING #3571). Seed reference plate for time zero determination on the same day. All plates were incubated overnight at 37° C. After 24 hours, test compound were added in 7-step dilution using HP Compound printer and incubated at 37° C. for 72 h. After 3 days, 30 μL/well CTG solution (Promega Cell Titer Glo solution; catalog #G755B and G756B) were added to each well, incubated for 30 minutes and the plate were read on PheraStar. Proliferation is calculated after subtracting time zero luminescence values from day 4 values and comparing to untreated wells. The IC50 values were determined using the four parameter fit.

In experiment [3] the test system is Ba/F3-ERBB2-A775_G776insYVMA. Kind of experiment: Ba/F3 cell survival assay, ERBB2 A775_G776insYVMA. In kind it is cell-based. To be noted: Mus musculus, BaF3, 48 h, read-out: BA/F3 (ERBB2 A775_G776 insYVMA) IC50. As for the experimental part: as §1, §2, §3, §4, §5
[4] abbreviates: read-out: BA/F3 (wild type) IC50, cell viability, Cell Titer-Glo, 48 h, with 10 ng/mL EGF, without IL-3.

Read-outs that look alike come from different tables or passages of the source.

Sequence of human Bub1 (O43683 704-1085): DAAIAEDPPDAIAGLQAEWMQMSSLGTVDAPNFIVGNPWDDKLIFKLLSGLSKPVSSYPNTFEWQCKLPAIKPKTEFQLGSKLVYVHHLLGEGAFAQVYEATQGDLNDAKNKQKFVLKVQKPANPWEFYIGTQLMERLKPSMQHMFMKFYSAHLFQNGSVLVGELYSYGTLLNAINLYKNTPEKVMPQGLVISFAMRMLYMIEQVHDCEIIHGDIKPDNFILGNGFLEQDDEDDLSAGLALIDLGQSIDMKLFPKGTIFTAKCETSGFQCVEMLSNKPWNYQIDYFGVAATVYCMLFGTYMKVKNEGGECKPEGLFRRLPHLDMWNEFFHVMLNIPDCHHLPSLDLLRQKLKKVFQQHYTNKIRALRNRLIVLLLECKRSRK

Take `COc1c(Cl)cccc1Nc1c(-c2ccncc2OCC2(C)CCO2)[nH]c2c1C(=O)NCC2` (single isomer, unassigned; (+)) [Example 48, (+)-3-(3-chloro-2-methoxyanilino)-2-{3-[(2-methyloxetan-2-yl)methoxy]pyridin-4-yl}-1,5,6,7-tetrahydro-4H-pyrrolo[3,2-c]pyridin-4-one]: the IC50 turned out to be 0.34 nM in experiment [1]; 0.34 nM in the experiment with Ba/F3-EGFR-E746_A750del; 11.4 nM in experiment [2]; 5.13 nM with Ba/F3-EGFR-N771_P772insH; 10300 nM at human Bub1; 350 nM with Ba/F3-EGFR-WT (setting [4]). Also, the IC50 with PC9 cells was found to be 2.1 nM; in experiment [3] it was 12.9 nM.

With `COc1c(Cl)cccc1Nc1c(-c2ccncc2OCC2OCC2(C)C)[nH]c2c1C(=O)NCC2` (single isomer, unassigned; (+)) [Example 50, (+)-3-(3-chloro-2-methoxyanilino)-2-{3-[(3,3-dimethyloxetan-2-yl)methoxy]pyridin-4-yl}-1,5,6,7-tetrahydro-4H-pyrrolo[3,2-c]pyridin-4-one], the IC50 was 0.519 nM in experiment [1]; 0.519 nM in the experiment with Ba/F3-EGFR-E746_A750del; 16.4 nM in experiment [2]; 7.64 nM in the experiment with Ba/F3-EGFR-N771_P772insH; greater than 20000 nM at human Bub1; 349 nM in the experiment on Ba/F3-EGFR-WT (setting [4]). The figures for the IC50 (with PC9 cells; in experiment [3]) were 2.3 nM and 12.4 nM, respectively.

Consider `COc1c(Cl)cccc1Nc1c(-c2ccncc2OCCC2CCO2)[nH]c2c1C(=O)NCC2` (single isomer, unassigned; (-)) [Example 26, (−)-3-(3-chloro-2-methoxyanilino)-2-{3-[2-(oxetan-2-yl)ethoxy]pyridin-4-yl}-1,5,6,7-tetrahydro-4H-pyrrolo[3,2-c]pyridin-4-one], for which the IC50 was 0.27 nM in experiment [1]; 0.27 nM in the experiment with Ba/F3-EGFR-E746_A750del; 9.36 nM in experiment [2]; 3.7 nM in the experiment with Ba/F3-EGFR-N771_P772insH; 1540 nM on human Bub1; 204 nM with Ba/F3-EGFR-WT (setting [4]). Besides, the IC50 was found to be 1.4 nM in the experiment on PC9 cells and 8.39 nM in experiment [3].

Take `COc1c(Cl)cccc1Nc1c(-c2ccncc2OC[C@@H]2CCO2)[nH]c2c1C(=O)NCC2` [Example 2, 3-(3-chlor-2-methoxyanilino)-2-{3-[(2S)-oxetan-2-ylmethoxy]pyridin-4-yl}-1,5,6,7-tetrahydro-4H-pyrrolo[3,2-c]pyridin-4-on]: the IC50 in experiment [1] is 0.328 nM; in the experiment with Ba/F3-EGFR-E746_A750del, 0.328 nM; in experiment [2], 9.73 nM; with Ba/F3-EGFR-N771_P772insH, 5.59 nM; on human Bub1 it was greater than 20000 nM; in the experiment on Ba/F3-EGFR-WT (Mus musculus, BaF3, 48 h, read-out: BA/F3 (wild type) IC50, cell viability, Cell Titer-Glo, 48 h, with 10 ng/mL EGF, without IL-3) it was 282 nM. Moreover, the IC50 in the experiment with PC9 cells amounted to 2.31 nM; in experiment [3], 11.4 nM.
